Laboratory results taken from ChEMBL document CHEMBL1201862, “PubChem BioAssay data set” (2004).
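How tested: cells in 96-well plates exposed to compound for 48 hours at five concentrations. GI50 = concentration required for 50% inhibition of growth.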 The source made the active and inactive calls. Cut-off read from the data, not from the text of the source: active = GI50 up to about 1.1 µM and inactive = higher. Non-standard residues stand in square brackets, D forms with d. Residues, ends and D or L forms follow the SMILES beside them. ξ: configuration not given here. *: point of attachment. ξHyp = O=C(O)C1CC(O)CN1; Cbz = O=C(OCc1ccccc1)*

Legend:
Experiment in all cases: growth of human tumour cells (NCI), 48 h
RXF 393 = system: RXF 393
HL-60 = system: HL-60
OVCAR-4 = system: OVCAR-4
SW-620 = system: SW-620
OVCAR-5 = system: OVCAR-5
SF-539 = system: SF-539
SK-MEL-5 = system: SK-MEL-5
UACC-257 = system: UACC-257
SR = system: SR
OVCAR-3 = system: OVCAR-3
MDA-MB-231 = system: MDA-MB-231
MOLT-4 = system: MOLT-4
M14 = system: M14
NCI-H522 = system: NCI-H522
DU-145 = system: DU-145
HCT-15 = system: HCT-15
NCI-H23 = system: NCI-H23
KM12 = system: KM12
SF-268 = system: SF-268
U-251 = system: U-251

SMILES | GI50 (RXF 393) | GI50 (HL-60) | GI50 (OVCAR-4) | GI50 (SW-620) | GI50 (OVCAR-5) | GI50 (SF-539) | GI50 (SK-MEL-5) | GI50 (UACC-257) | GI50 (SR) | GI50 (OVCAR-3) | GI50 (MDA-MB-231) | GI50 (MOLT-4) | GI50 (M14) | GI50 (NCI-H522) | GI50 (DU-145) | GI50 (HCT-15) [µM] | GI50 (NCI-H23) | GI50 (KM12) | GI50 (SF-268) | GI50 (U-251)
CCOC(=O)C(=O)N1C(C)=C(C(=O)OCC)CC(C(=O)OCC)=C1C | > 100 µM (inactive) | > 100 µM (inactive) | > 100 µM (inactive) | > 100 µM (inactive) | > 100 µM (inactive) | > 100 µM (inactive) | > 100 µM (inactive) | > 100 µM (inactive) | > 100 µM (inactive) | > 100 µM (inactive) | > 100 µM (inactive) | > 100 µM (inactive) | > 100 µM (inactive) | > 100 µM (inactive) | > 100 µM (inactive) | > 100 | > 100 µM (inactive) | > 100 µM (inactive) | – | –
O=C(O)CCC(NC(=O)c1ccc(OCc2nc3cc(C(F)(F)F)ccc3nc2-c2ccccc2)cc1)C(=O)O (centres undefined) | > 100 µM (inactive) | > 100 µM (inactive) | > 100 µM (inactive) | > 100 µM (inactive) | > 100 µM (inactive) | > 100 µM (inactive) | – | > 100 µM (inactive) | 9.31 µM (inactive) | > 100 µM (inactive) | > 100 µM (inactive) | > 100 µM (inactive) | > 100 µM (inactive) | > 100 µM (inactive) | > 100 µM (inactive) | > 100 | > 100 µM (inactive) | > 100 µM (inactive) | > 100 µM (inactive) | > 100 µM (inactive)
CCOC(=O)C12CCC(=O)N1N(C)c1ncccc1N2 (centres undefined) | > 100 µM (inactive) | – | > 100 µM (inactive) | > 100 µM (inactive) | > 100 µM (inactive) | > 100 µM (inactive) | > 100 µM (inactive) | > 100 µM (inactive) | > 100 µM (inactive) | > 100 µM (inactive) | > 100 µM (inactive) | > 100 µM (inactive) | > 100 µM (inactive) | > 100 µM (inactive) | > 100 µM (inactive) | > 100 | > 100 µM (inactive) | > 100 µM (inactive) | > 100 µM (inactive) | > 100 µM (inactive)
Cc1cc(C)c(S(=O)(=O)N(CCCN)OCCON(CCCN)S(=O)(=O)c2c(C)cc(C)cc2C)c(C)c1 | 4.67 µM (inactive) | – | 3.3 µM (inactive) | > 22.2 µM (inactive) | 2.24 µM (inactive) | 2.49 µM (inactive) | 8.2 µM (inactive) | 3.39 µM (inactive) | 3.12 µM (inactive) | 1.79 µM (inactive) | 2.89 µM (inactive) | 2.64 µM (inactive) | 2.75 µM (inactive) | 6.53 µM (inactive) | 5.68 µM (inactive) | 25.7 | 2.59 µM (inactive) | 2.17 µM (inactive) | 2.18 µM (inactive) | –
COC(=O)C(C(=O)C(=O)Nc1ccccc1C#N)c1nc2ccc([N+](=O)[O-])cc2nc1O (centres undefined) | > 100 µM (inactive) | – | 53.3 µM (inactive) | > 100 µM (inactive) | > 100 µM (inactive) | 44.5 µM (inactive) | > 100 µM (inactive) | > 100 µM (inactive) | > 100 µM (inactive) | > 100 µM (inactive) | > 100 µM (inactive) | > 100 µM (inactive) | > 100 µM (inactive) | 53.7 µM (inactive) | > 100 µM (inactive) | > 100 | > 100 µM (inactive) | 37.8 µM (inactive) | > 100 µM (inactive) | > 100 µM (inactive)
CCCCCCN1C(=O)CC(=O)N(CCCCCC)S1(=O)=O | 16.4 µM (inactive) | 24.8 µM (inactive) | 20 µM (inactive) | 19.1 µM (inactive) | 19.8 µM (inactive) | 19.8 µM (inactive) | 19.8 µM (inactive) | 38.4 µM (inactive) | 26.9 µM (inactive) | 21.4 µM (inactive) | 17.1 µM (inactive) | 23.3 µM (inactive) | 32.4 µM (inactive) | 12.9 µM (inactive) | 65.8 µM (inactive) | – | 25.7 µM (inactive) | 28.1 µM (inactive) | 17.7 µM (inactive) | 17.6 µM (inactive)
NC(=O)CNC(=O)C1CC(O)CN1C(=O)OCc1ccccc1 (centres undefined) (Cbz-[ξHyp]-Gly-NH2) | > 100 µM (inactive) | > 100 µM (inactive) | > 100 µM (inactive) | > 100 µM (inactive) | > 100 µM (inactive) | – | > 100 µM (inactive) | > 100 µM (inactive) | > 100 µM (inactive) | > 100 µM (inactive) | > 100 µM (inactive) | > 100 µM (inactive) | > 100 µM (inactive) | > 100 µM (inactive) | > 100 µM (inactive) | > 100 | > 100 µM (inactive) | > 100 µM (inactive) | 74.6 µM (inactive) | > 100 µM (inactive)
COC1C(O)CC(OC2CC(Oc3cc4cc5c(c(O)c4c(O)c3C)C(=O)[C@@H](OC3CC(OC4CC(OC6CC(C)(O)C(OC(C)=O)C(C)O6)C(O)C(C)O4)C(O)C(C)O3)[C@H]([C@H](OC)C(=O)[C@@H](O)[C@@H](C)O)C5)OC(C)C2OC(C)=O)OC1C (some centres undefined) [CHROMOMYCIN] | 0.00311 µM (active) | 0.0127 µM (active) | < 0.01 µM (active) | < 0.01 µM (active) | < 0.01 µM (active) | 0.00326 µM (active) | < 0.01 µM (active) | < 0.01 µM (active) | < 0.01 µM (active) | < 0.01 µM (active) | 3e-05 µM (active) | < 0.01 µM (active) | – | 0.00366 µM (active) | 2.48e-05 µM (active) | 0.0138 | < 0.01 µM (active) | < 0.01 µM (active) | 0.00357 µM (active) | 0.00344 µM (active)
S=c1nc(Nc2ccccc2)c2c3c(sc2[nH]1)CCCC3 | > 100 µM (inactive) | > 100 µM (inactive) | > 100 µM (inactive) | > 100 µM (inactive) | > 100 µM (inactive) | – | > 100 µM (inactive) | > 100 µM (inactive) | 8.67 µM (inactive) | > 100 µM (inactive) | > 100 µM (inactive) | > 100 µM (inactive) | – | 71.4 µM (inactive) | > 100 µM (inactive) | > 100 | > 100 µM (inactive) | > 100 µM (inactive) | > 100 µM (inactive) | > 100 µM (inactive)
Cc1ccc(Nc2nc3c(=O)n(C)c(=O)n(C)c3nc2Nc2ccc(C)cc2)cc1 | 10.3 µM (inactive) | 9.66 µM (inactive) | 11.1 µM (inactive) | 1.74 µM (inactive) | 16.4 µM (inactive) | 13.5 µM (inactive) | 16.4 µM (inactive) | 15.7 µM (inactive) | 5.38 µM (inactive) | – | 13.7 µM (inactive) | 14.8 µM (inactive) | – | 1.15 µM (inactive) | 32.4 µM (inactive) | 3.32 | 15.9 µM (inactive) | 16.4 µM (inactive) | 16 µM (inactive) | 16.3 µM (inactive)
N#Cc1ccc(-c2nc3c(N)ncnc3o2)cc1 | > 100 µM (inactive) | > 100 µM (inactive) | – | > 100 µM (inactive) | > 100 µM (inactive) | > 100 µM (inactive) | > 100 µM (inactive) | > 100 µM (inactive) | > 100 µM (inactive) | > 100 µM (inactive) | > 100 µM (inactive) | > 100 µM (inactive) | > 100 µM (inactive) | > 100 µM (inactive) | > 100 µM (inactive) | > 100 | > 100 µM (inactive) | > 100 µM (inactive) | > 100 µM (inactive) | –
CC(C)OC(=O)NNc1c(Cl)cc(Cl)cc1Cl | 26.2 µM (inactive) | 68.9 µM (inactive) | – | > 100 µM (inactive) | > 100 µM (inactive) | > 100 µM (inactive) | 22.5 µM (inactive) | 33.7 µM (inactive) | 55.3 µM (inactive) | 56 µM (inactive) | > 100 µM (inactive) | 58.7 µM (inactive) | 51.5 µM (inactive) | 30.1 µM (inactive) | > 100 µM (inactive) | 58.5 | > 100 µM (inactive) | 71.6 µM (inactive) | 39.1 µM (inactive) | > 100 µM (inactive)
CCn1c(-c2ccccc2)cs/c1=N\C(P(=O)(O)O)P(=O)(O)O | > 100 µM (inactive) | > 100 µM (inactive) | – | > 100 µM (inactive) | > 100 µM (inactive) | > 100 µM (inactive) | > 100 µM (inactive) | > 100 µM (inactive) | > 100 µM (inactive) | > 100 µM (inactive) | > 100 µM (inactive) | > 100 µM (inactive) | > 100 µM (inactive) | > 100 µM (inactive) | > 100 µM (inactive) | > 100 | > 100 µM (inactive) | > 100 µM (inactive) | > 100 µM (inactive) | > 100 µM (inactive)
O=c1c2c3c(sc2nc(S)n1-c1ccccc1)CCCc1ccc([N+](=O)[O-])cc1-3 | 16.9 µM (inactive) | 17.6 µM (inactive) | 38.9 µM (inactive) | 10.4 µM (inactive) | > 100 µM (inactive) | – | 25.7 µM (inactive) | 29.2 µM (inactive) | 27.4 µM (inactive) | 32.1 µM (inactive) | > 100 µM (inactive) | 21.3 µM (inactive) | > 100 µM (inactive) | 13.9 µM (inactive) | 48.9 µM (inactive) | 22 | 30.5 µM (inactive) | > 100 µM (inactive) | 36.1 µM (inactive) | 39.8 µM (inactive)
O=C(O)C(Br)C(Br)c1ccccc1[N+](=O)[O-] (centres undefined) | > 100 µM (inactive) | – | > 100 µM (inactive) | > 100 µM (inactive) | > 100 µM (inactive) | > 100 µM (inactive) | > 100 µM (inactive) | > 100 µM (inactive) | > 100 µM (inactive) | 46.9 µM (inactive) | > 100 µM (inactive) | – | > 100 µM (inactive) | 16.3 µM (inactive) | > 100 µM (inactive) | > 100 | > 100 µM (inactive) | > 100 µM (inactive) | > 100 µM (inactive) | > 100 µM (inactive)
